US9539260B2, “Dihydro-benzo-oxazine and dihydro-pyrido-oxazine derivatives” (Novartis AG, priority 2012, dated 2017)

Experiments:
PI3K delta = PI3K delta (Homo sapiens (Human), UniProt O00329); test: Enzymatic PI3K delta isoform inhibition (lipid kinase activity, Kinase-Glo luminescence); assay type: biochemical; conditions: Enzymatic assay
Procedure: (§1) 1.1 Test of Lipid Kinase Activity […]
(§2) In a more preferred assay, the kinase reaction is performed in a final volume of 10 μl per well of a low volume non-binding CORNING, 384 well black plate (Cat. No. #3676). The final concentrations of ATP and phosphatidyl inositol (PI) in the assay are 1 μM and 10 μg/mL, respectively. The reaction is started by the addition of ATP.
(§3) The components of the assay are added per well as follows:
(§4) The Z′ value is a universal measurement of the robustness of an assay. A Z′ between 0.5 and 1.0 is considered an excellent assay.
(§5) IC50 is determined by a four parameter curve fitting routine that comes along with “excel fit”. A four parameter logistic equation is used to calculate IC50 values (IDBS XLfit) of the percentage inhibition of each compound at 8 concentrations (usually 10, 3.0, 1.0, 0.3, 0.1, 0.030, 0.010 and 0.003 μM). Alternatively, IC50 values are calculated using idbsXLfit model 204, which is a 4 parameter logistic model.
(§6) Yet alternatively, for an ATP depletion assay, compounds of the formula I to be tested are dissolved in DMSO and directly distributed into a white 384-well plate at 0.5 μl per well. To start the reaction, 10 μl of 10 nM PI3 kinase and 5 μg/mL 1-alpha-phosphatidylinositol (PI) are added into each well followed by 10 μl of 2 μM ATP. The reaction is performed until approx 50% of the ATP is depleted, and then stopped by the addition of 20 μl of Kinase-Glo solution (Promega Corp., Madison, Wis., USA). The stopped reaction is incubated for 5 minutes and the remaining ATP is then detected via luminescence. IC50 values are then determined.

PI3K alpha = PI3K alpha (Homo sapiens (Human), UniProt P42336); test: Enzymatic PI3K alpha isoform inhibition (lipid kinase activity, Kinase-Glo luminescence); assay type: biochemical; conditions: Enzymatic assay
Procedure: as §1, §2, §3, §4, §5, §6

PI3K delta, sequence (O00329 other isoform, or with tags, fused parts or gaps linker GGGGGG): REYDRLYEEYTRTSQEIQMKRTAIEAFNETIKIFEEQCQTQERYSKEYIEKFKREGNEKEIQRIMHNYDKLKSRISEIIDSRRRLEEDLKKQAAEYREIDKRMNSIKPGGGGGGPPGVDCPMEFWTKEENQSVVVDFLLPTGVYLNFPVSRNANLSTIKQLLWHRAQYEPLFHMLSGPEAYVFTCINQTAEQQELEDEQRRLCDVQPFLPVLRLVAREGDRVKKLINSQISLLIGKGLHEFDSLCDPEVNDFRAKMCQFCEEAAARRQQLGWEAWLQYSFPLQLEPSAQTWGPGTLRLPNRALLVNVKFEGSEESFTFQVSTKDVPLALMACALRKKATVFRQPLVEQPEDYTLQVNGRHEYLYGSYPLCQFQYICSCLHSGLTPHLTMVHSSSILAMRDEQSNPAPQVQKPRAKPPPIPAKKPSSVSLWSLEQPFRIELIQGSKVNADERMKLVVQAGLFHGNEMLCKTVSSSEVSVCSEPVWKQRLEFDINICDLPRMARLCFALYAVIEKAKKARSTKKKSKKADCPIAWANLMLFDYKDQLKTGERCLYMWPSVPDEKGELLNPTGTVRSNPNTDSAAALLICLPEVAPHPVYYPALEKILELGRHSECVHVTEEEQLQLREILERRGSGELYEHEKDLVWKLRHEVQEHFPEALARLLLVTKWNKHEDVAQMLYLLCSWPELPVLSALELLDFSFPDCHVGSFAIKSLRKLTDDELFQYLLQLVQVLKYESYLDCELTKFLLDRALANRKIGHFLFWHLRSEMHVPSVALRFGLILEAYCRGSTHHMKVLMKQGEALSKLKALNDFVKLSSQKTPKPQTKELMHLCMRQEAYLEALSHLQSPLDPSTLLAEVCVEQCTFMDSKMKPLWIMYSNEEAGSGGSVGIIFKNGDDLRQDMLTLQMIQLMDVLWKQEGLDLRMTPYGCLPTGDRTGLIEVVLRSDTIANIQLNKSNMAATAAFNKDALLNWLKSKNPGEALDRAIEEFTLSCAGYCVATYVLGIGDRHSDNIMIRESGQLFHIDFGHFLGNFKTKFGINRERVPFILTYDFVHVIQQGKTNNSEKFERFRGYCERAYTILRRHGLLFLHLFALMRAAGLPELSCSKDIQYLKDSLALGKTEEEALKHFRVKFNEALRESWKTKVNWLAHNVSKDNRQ
PI3K alpha, sequence (P42336 other isoform, or with tags, fused parts or gaps): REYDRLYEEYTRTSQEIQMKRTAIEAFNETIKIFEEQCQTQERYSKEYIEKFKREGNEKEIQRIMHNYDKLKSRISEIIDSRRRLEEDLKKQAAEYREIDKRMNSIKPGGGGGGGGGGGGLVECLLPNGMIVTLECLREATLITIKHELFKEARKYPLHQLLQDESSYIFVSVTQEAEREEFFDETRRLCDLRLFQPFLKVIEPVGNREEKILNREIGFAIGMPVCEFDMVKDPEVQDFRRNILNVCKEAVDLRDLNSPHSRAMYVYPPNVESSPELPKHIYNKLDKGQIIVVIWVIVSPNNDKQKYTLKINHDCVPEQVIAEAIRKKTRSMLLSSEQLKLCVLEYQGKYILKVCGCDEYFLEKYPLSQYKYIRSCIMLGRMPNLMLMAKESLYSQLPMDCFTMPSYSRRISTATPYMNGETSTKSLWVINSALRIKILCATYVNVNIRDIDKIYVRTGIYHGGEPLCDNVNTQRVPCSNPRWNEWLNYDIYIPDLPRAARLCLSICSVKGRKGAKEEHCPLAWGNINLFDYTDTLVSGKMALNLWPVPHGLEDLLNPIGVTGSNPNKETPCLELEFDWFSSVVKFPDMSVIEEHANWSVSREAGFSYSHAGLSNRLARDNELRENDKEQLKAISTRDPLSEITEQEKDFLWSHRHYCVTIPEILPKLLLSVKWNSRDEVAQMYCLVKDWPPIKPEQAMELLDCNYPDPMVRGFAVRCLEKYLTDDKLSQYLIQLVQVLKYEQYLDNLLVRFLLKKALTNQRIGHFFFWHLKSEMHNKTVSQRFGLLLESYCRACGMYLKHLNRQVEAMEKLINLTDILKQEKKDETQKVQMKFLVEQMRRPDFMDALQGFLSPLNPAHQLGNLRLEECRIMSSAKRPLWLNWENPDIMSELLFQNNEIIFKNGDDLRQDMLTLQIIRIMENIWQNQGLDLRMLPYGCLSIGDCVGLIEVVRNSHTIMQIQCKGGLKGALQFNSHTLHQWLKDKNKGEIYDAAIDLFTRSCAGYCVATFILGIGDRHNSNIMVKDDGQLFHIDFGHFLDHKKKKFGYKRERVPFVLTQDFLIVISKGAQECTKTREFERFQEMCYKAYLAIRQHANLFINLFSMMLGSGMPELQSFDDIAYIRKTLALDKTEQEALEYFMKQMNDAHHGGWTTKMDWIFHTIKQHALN

Compound	IC50 (PI3K delta) [nM]	IC50 (PI3K alpha) [nM]
COc1cc(N2CCOc3ccc(O[C@H]4CCN(C(=O)C5CCOC5)C4)cc32)cnc1OC (stereo partly drawn) [Example B40, {(S)-3-[4-(5,6-Dimethoxy-pyridin-3-yl)-3,4-dihydro-2H-benzo[1,4]oxazin-6-yloxy]-pyrrolidin-1-yl}-(tetrahydro-furan-3-yl)-methanone]	12	249
CN(C)c1cc(N2CCOc3ccc(O[C@H]4CCN(C(=O)C5CCOCC5)C4)cc32)cnc1S(C)(=O)=O [Example B78, {(S)-3-[4-(5-Dimethylamino-6-methanesulfonyl-pyridin-3-yl)-3,4-dihydro-2H-benzo[1,4]oxazin-6-yloxy]-pyrrolidin-1-yl}-(tetrahydro-pyran-4-yl)-methanone]	–	243
Cc1cc(N2CCOc3ccc(O[C@H]4CCN(C(=O)[C@H]5CC[C@@H](O)CC5)C4)cc32)cnc1S(C)(=O)=O [Example B51, (4-Hydroxy-cyclohexyl)-{(S)-3-[4-(6-methanesulfonyl-5-methyl-pyridin-3-yl)-3,4-dihydro-2H-benzo[1,4]oxazin-6-yloxy]-pyrrolidin-1-yl}-methanone]	10	1030
CC[S+]([O-])c1ccc(N2CCOc3ccc(O[C@H]4CCN(C(=O)C5CCOCC5)C4)cc32)cn1 (stereo partly drawn) [Example B7, {(S)-3-[4-(6-Ethanesulfinyl-pyridin-3-yl)-3,4-dihydro-2H-benzo[1,4]oxazin-6-yloxy]-pyrrolidin-1-yl}-(tetrahydro-pyran-4-yl)-methanone]	114	3540
COc1cc(N2CCOc3ccc(O[C@H]4CCN(C(=O)C5CCOCC5)C4)cc32)cnc1OC [Example B38, {(S)-3-[4-(5,6-Dimethoxy-pyridin-3-yl)-3,4-dihydro-2H-benzo[1,4]oxazin-6-yloxy]-pyrrolidin-1-yl}-(tetrahydro-pyran-4-yl)-methanone]	3	166
Cc1cc(N2CCOc3ccc(O[C@H]4CCN(C(=O)C5CCOCC5)C4)cc32)cnc1OC(F)F [Example B72, {(S)-3-[4-(6-Difluoromethoxy-5-methyl-pyridin-3-yl)-3,4-dihydro-2H-benzo[1,4]oxazin-6-yloxy]-pyrrolidin-1-yl}-(tetrahydro-pyran-4-yl)-methanone]	32	2060
COc1ncc(N2CCOc3ccc(O[C@H]4CCN(C(=O)Cc5ccncc5)C4)cc32)cc1C#N [S, 2-Methoxy-5-{6-[(S)-1-(2-pyridin-4-yl-acetyl)-pyrrolidin-3-yloxy]-2,3-dihydro-benzo[1,4]oxazin-4-yl}-nicotinonitrile]	36	612
COc1ncc(N2CCOc3ccc(O[C@H]4CCN(C(=O)[C@@H]5CCN(C(C)=O)C5)C4)cc32)cc1C#N [K, 5-{6-[(S)-1-((R)-1-Acetyl-pyrrolidine-3-carbonyl)-pyrrolidin-3-yloxy]-2,3-dihydro-benzo[1,4]oxazin-4-yl}-2-methoxy-nicotinonitrile]	< 3	393
CCC(=O)N1CC[C@H](Oc2ccc3c(c2)N(c2ccnc(C#N)c2)CCO3)C1 [Example B3, 4-[6-((S)-1-Propionyl-pyrrolidin-3-yloxy)-2,3-dihydro-benzo[1,4]oxazin-4-yl]-pyridine-2-carbonitrile]	–	> 9100
O=C(C1CCOCC1)N1CC[C@H](Oc2ccc3c(c2)N(c2ccnc(C(F)(F)F)c2)CCO3)C1 [Example A21, (Tetrahydro-pyran-4-yl)-{(S)-3-[4-(2-trifluoromethyl-pyridin-4-yl)-3,4-dihydro-2H-benzo[1,4]oxazin-6-yloxy]-pyrrolidin-1-yl}-methanone]	–	8430
Cc1ncc(N2CCOc3ccc(O[C@H]4CCN(C(=O)C5CCOCC5)C4)cc32)cc1[N+](=O)[O-] [Example A4, {(S)-3-[4-(6-Methyl-5-nitro-pyridin-3-yl)-3,4-dihydro-2H-benzo[1,4]oxazin-6-yloxy]-pyrrolidin-1-yl}-(tetrahydro-pyran-4-yl)-methanone]	–	> 9100
CCC(=O)N1CC[C@H](Oc2ccc3c(c2)N(c2ccc(OC)c(S(=O)(=O)N4CCOCC4)c2)CCO3)C1 [Example A25, 1-((S)-3-{4-[4-Methoxy-3-(morpholine-4-sulfonyl)-phenyl]-3,4-dihydro-2H-benzo[1,4]oxazin-6-yloxy}-pyrrolidin-1-yl)-propan-1-one]	–	5760
CCC(=O)N1CC[C@H](Oc2ccc3c(c2)N(c2ccc(OC)c(S(=O)(=O)N4CCN(C)CC4)c2)CCO3)C1 [Example A27, 1-((S)-3-{4-[4-Methoxy-3-(4-methyl-piperazine-1-sulfonyl)-phenyl]-3,4-dihydro-2H-benzo[1,4]oxazin-6-yloxy}-pyrrolidin-1-yl)-propan-1-one]	–	> 9100
[2H]C1([2H])COc2ccc(O[C@H]3CCN(C(=O)c4cn(C)cn4)C3)cc2N1c1cnc(OC)c(C#N)c1 [Example B30, 2-Methoxy-5-{6-[(S)-1-(1-methyl-1H-imidazole-4-carbonyl)-pyrrolidin-3-yloxy]-3,3-dideutero-2,3-dihydro-benzo[1,4]oxazin-4-yl}-nicotinonitrile]	15.5	–
COCc1ccc(N2CCOc3ccc(O[C@H]4CCN(C(=O)C5CCOCC5)C4)cc32)cn1 [Example A20, {(S)-3-[4-(6-Methoxymethyl-pyridin-3-yl)-3,4-dihydro-2H-benzo[1,4]oxazin-6-yloxy]-pyrrolidin-1-yl}-(tetrahydro-pyran-4-yl)-methanone]	–	> 9100
COc1ncc(N2CCOc3ccc(N[C@H]4CCN(C(=O)C5CCOCC5)C4)cc32)cc1C#N [Y, 2-Methoxy-5-{6-[(S)-1-(tetrahydro-pyran-4-carbonyl)-pyrrolidin-3-ylamino]-2,3-dihydro-benzo[1,4]oxazin-4-yl}-nicotinonitrile]	–	1920

Results, then the compound that gave them:

IC50 (PI3K delta) [nM]	IC50 (PI3K alpha) [nM]	Compound
18	842	COc1ncc(N2CCOc3ccc(O[C@H]4CCN(C(=O)C5CCS(=O)(=O)CC5)C4)c(F)c32)cc1C [Example I1, (1,1-Dioxo-hexahydro-1lambda*6*-thiopyran-4-yl)-{(S)-3-[5-fluoro-4-(6-methoxy-5-methyl-pyridin-3-yl)-3,4-dihydro-2H-benzo[1,4]oxazin-6-yloxy]-pyrrolidin-1-yl}-methanone]
28	1240	COc1ncc(N2CCOc3ccc(O[C@H]4CON(C(=O)c5cn(C)cn5)C4)cc32)cc1C#N [Example D26, 2-Methoxy-5-{6-[(R)-2-(1-methyl-1H-imidazole-4-carbonyl)-isoxazolidin-4-yloxy]-2,3-dihydro-benzo[1,4]oxazin-4-yl}-nicotinonitrile]
11	616	COc1cc(N2CCOc3ccc(O[C@H]4CCN(C(=O)C5CCS(=O)(=O)C5)C4)cc32)cnc1OC (single isomer, unassigned) [Example H9]
5	38	COc1ncc(N2CCOc3cnc(O[C@H]4CCN(C(=O)C5CCOCC5)C4)cc32)cc1C(F)F [Example F8, {(S)-3-[1-(5-Difluoromethyl-6-methoxy-pyridin-3-yl)-2,3-dihydro-1H-pyrido[3,4-b][1,4]oxazin-7-yloxy]-pyrrolidin-1-yl}-(tetrahydro-pyran-4-yl)-methanone]
6	193	COc1ncc(N2CCOc3ccc(O[C@H]4CCN(C(=O)c5oc(C)nc5C)C4)cc32)cc1C#N [Example C20, 5-{6-[(S)-1-(2,4-Dimethyl-oxazole-5-carbonyl)-pyrrolidin-3-yloxy]-2,3-dihydro-benzo[1,4]oxazin-4-yl}-2-methoxy-nicotinonitrile]
–	234	COc1ncc(N2CCOc3ccc(O[C@H]4CCN(C(=O)CN5CCOCC5)C4)cc32)cc1C#N [Example D7, 2-Methoxy-5-{6-[(S)-1-(2-morpholin-4-yl-acetyl)-pyrrolidin-3-yloxy]-2,3-dihydro-benzo[1,4]oxazin-4-yl}-nicotinonitrile]
–	415	COc1ncc(N2CCOc3ccc(O[C@H]4CCN(C(=O)C5CCN(C)CC5)C4)cc32)cc1C#N [Example D14, 2-Methoxy-5-{6-[(S)-1-(1-methyl-piperidine-4-carbonyl)-pyrrolidin-3-yloxy]-2,3-dihydro-benzo[1,4]oxazin-4-yl}-nicotinonitrile]
–	346	COc1ncc(N2CCOc3ccc(O[C@H]4CCN(C(=O)C5CCC(OC)CC5)C4)cc32)cc1C#N (single isomer, unassigned) [Example D36]
–	> 9100	COc1ncc(N2CCOc3ccc(O[C@H]4CCN(C(=O)c5cnon5)C4)cc32)cc1C#N [Example C7, 5-{6-[(S)-1-(Furazan-3-carbonyl)-pyrrolidin-3-yloxy]-2,3-dihydro-benzo[1,4]oxazin-4-yl}-2-methoxy-nicotinonitrile]
–	236	COc1ncc(N2CCOc3ccc(O[C@H]4CCN(C(=O)C5CCOCC5)C4)cc32)cc1C#N [Example D4, 2-Methoxy-5-{6-[(S)-1-(tetrahydro-pyran-4-carbonyl)-pyrrolidin-3-yloxy]-2,3-dihydro-benzo[1,4]oxazin-4-yl}-nicotinonitrile]
